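These data come from cells grown in 96-well plates and exposed to compound for 48 hours at five concentrations. The concentration for 50% growth inhibition is given as GI50.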 The source made the active and inactive calls. Cut-off read from the data, not from the text of the source: active = GI50 up to about 1.1 µM and inactive = higher.
Tests used:
Test in all cases: inhibition of tumour cell growth, NCI panel, 48 h
[1] = test system: HCT-116
[2] = test system: SK-MEL-28
[3] = test system: A549
[4] = test system: NCI-H23
[5] = test system: OVCAR-5
[6] = test system: HOP-62
[7] = test system: SW-620
[8] = test system: MOLT-4
[9] = test system: MDA-N
[10] = test system: MCF7
[11] = test system: IGROV-1
[12] = test system: Hs-578T
[13] = test system: CCRF-CEM
[14] = test system: BT-549
[15] = test system: COLO 205
[16] = test system: MDA-MB-231
[17] = test system: RXF 393
[18] = test system: HT-29
[19] = test system: TK-10
[20] = test system: M14

NCC(=O)N1CCN(c2nc(N3CCCC3)c3nc(Cl)c(NCc4ccccc4)nc3n2)CC1
GI50 [1]: 1.79 µM (inactive) | GI50 [2]: 2.23 µM (inactive) | GI50 [3]: 1.87 µM (inactive) | GI50 [4]: 1.95 µM (inactive) | GI50 [5]: 2.91 µM (inactive) | GI50 [6]: 1.56 µM (inactive) | GI50 [7]: 2.66 µM (inactive) | GI50 [8]: 1.12 µM (inactive) | GI50 [9]: 1.82 µM (inactive) | GI50 [10]: 1.83 µM (inactive) | GI50 [11]: 1.63 µM (inactive) | GI50 [12]: 2.12 µM (inactive) | GI50 [13]: 2.49 µM (inactive) | GI50 [14]: 2.09 µM (inactive) | GI50 [15]: 1.7 µM (inactive) | GI50 [16]: 1.85 µM (inactive) | GI50 [17]: 1.43 µM (inactive) | GI50 [18]: 1.91 µM (inactive) | GI50 [19]: 1.9 µM (inactive) | GI50 [20]: 1.72 µM (inactive)

CCc1cccc(CC)c1NC(=O)C(C#N)C1=C(Cl)C(=O)c2ccccc2C1=O (centres undefined)
GI50 [1]: 15.9 µM (inactive) | GI50 [2]: 20.6 µM (inactive) | GI50 [3]: 18.5 µM (inactive) | GI50 [4]: 13 µM (inactive) | GI50 [5]: 18.8 µM (inactive) | GI50 [6]: 14.5 µM (inactive) | GI50 [7]: 9.33 µM (inactive) | GI50 [8]: 1.53 µM (inactive) | GI50 [9]: 16.7 µM (inactive) | GI50 [10]: 14.6 µM (inactive) | GI50 [11]: 17.8 µM (inactive) | GI50 [12]: < 0.01 µM (active) | GI50 [13]: 1.33 µM (inactive) | GI50 [14]: 12.4 µM (inactive) | GI50 [15]: 20.3 µM (inactive) | GI50 [16]: 5.55 µM (inactive) | GI50 [17]: 16.3 µM (inactive) | GI50 [18]: 19.9 µM (inactive) | GI50 [19]: 21.2 µM (inactive) | GI50 [20]: 16.8 µM (inactive)

O=C1c2ccc(O)cc2OC(c2cc(O)c(O)c(O)c2)C1O (centres undefined) [DIHYDROBINETIN]
GI50 [1]: 22 µM (inactive) | GI50 [2]: 46.8 µM (inactive) | GI50 [3]: > 100 µM (inactive) | GI50 [4]: 34.5 µM (inactive) | GI50 [5]: 58.2 µM (inactive) | GI50 [6]: 35.5 µM (inactive) | GI50 [7]: 25 µM (inactive) | GI50 [8]: 19.1 µM (inactive) | GI50 [9]: 18.4 µM (inactive) | GI50 [10]: 25.7 µM (inactive) | GI50 [11]: 18 µM (inactive) | GI50 [12]: 70.1 µM (inactive) | GI50 [13]: 24.1 µM (inactive) | GI50 [14]: 20.5 µM (inactive) | GI50 [15]: 32.4 µM (inactive) | GI50 [16]: 21.1 µM (inactive) | GI50 [17]: > 100 µM (inactive) | GI50 [18]: 23.4 µM (inactive) | GI50 [19]: 23.6 µM (inactive) | GI50 [20]: > 100 µM (inactive)

CC(C)C(=O)CP(=O)(O)O
GI50 [1]: > 100 µM (inactive) | GI50 [2]: > 100 µM (inactive) | GI50 [3]: > 100 µM (inactive) | GI50 [4]: > 100 µM (inactive) | GI50 [5]: > 100 µM (inactive) | GI50 [6]: > 100 µM (inactive) | GI50 [7]: > 100 µM (inactive) | GI50 [8]: > 100 µM (inactive) | GI50 [9]: > 100 µM (inactive) | GI50 [10]: > 100 µM (inactive) | GI50 [11]: > 100 µM (inactive) | GI50 [12]: > 100 µM (inactive) | GI50 [13]: > 100 µM (inactive) | GI50 [14]: > 100 µM (inactive) | GI50 [15]: > 100 µM (inactive) | GI50 [16]: > 100 µM (inactive) | GI50 [17]: > 100 µM (inactive) | GI50 [18]: > 100 µM (inactive) | GI50 [19]: > 100 µM (inactive) | GI50 [20]: > 100 µM (inactive)

CC(C)c1ccc(C(c2c(O)oc3ccccc3c2=O)c2c(O)oc3ccccc3c2=O)cc1
GI50 [1]: 17 µM (inactive) | GI50 [2]: 18.9 µM (inactive) | GI50 [3]: 19.1 µM (inactive) | GI50 [4]: 23.9 µM (inactive) | GI50 [5]: 17.6 µM (inactive) | GI50 [6]: 21.4 µM (inactive) | GI50 [7]: 17.1 µM (inactive) | GI50 [8]: 6.55 µM (inactive) | GI50 [9]: 21.5 µM (inactive) | GI50 [10]: 27.9 µM (inactive) | GI50 [11]: 24.8 µM (inactive) | GI50 [12]: 25.6 µM (inactive) | GI50 [13]: 11.6 µM (inactive) | GI50 [14]: 18.1 µM (inactive) | GI50 [15]: 18.7 µM (inactive) | GI50 [16]: 21.4 µM (inactive) | GI50 [17]: 21.8 µM (inactive) | GI50 [18]: 20.8 µM (inactive) | GI50 [19]: 24.6 µM (inactive) | GI50 [20]: 19.6 µM (inactive)

CC1(C)C(=O)/C=C\C(=O)C(C)(C)C(=O)/C=C\C(=O)C(C)(C)C(=O)/C=C\C(=O)C(C)(C)C(=O)/C=C\C1=O
GI50 [1]: 15.7 µM (inactive) | GI50 [2]: 26.5 µM (inactive) | GI50 [3]: > 70.8 µM (inactive) | GI50 [4]: 21.4 µM (inactive) | GI50 [5]: 41.1 µM (inactive) | GI50 [6]: > 100 µM (inactive) | GI50 [7]: 11.1 µM (inactive) | GI50 [8]: 3.53 µM (inactive) | GI50 [9]: 41.8 µM (inactive) | GI50 [10]: 45.9 µM (inactive) | GI50 [11]: 34.4 µM (inactive) | GI50 [12]: > 100 µM (inactive) | GI50 [13]: 3.51 µM (inactive) | GI50 [14]: > 10 µM (inactive) | GI50 [15]: 15.5 µM (inactive) | GI50 [16]: 26.2 µM (inactive) | GI50 [17]: 17.9 µM (inactive) | GI50 [18]: 17.7 µM (inactive) | GI50 [19]: > 55.2 µM (inactive) | GI50 [20]: 19.4 µM (inactive)

O=C(/C=C/c1ccc2c(c1)OCO2)c1ccc(O)cc1
GI50 [1]: 13.4 µM (inactive) | GI50 [2]: 19.3 µM (inactive) | GI50 [3]: 17.4 µM (inactive) | GI50 [4]: 15.5 µM (inactive) | GI50 [5]: 17.5 µM (inactive) | GI50 [6]: 26.8 µM (inactive) | GI50 [7]: 12.1 µM (inactive) | GI50 [9]: 10.8 µM (inactive) | GI50 [10]: 11.1 µM (inactive) | GI50 [11]: 15.1 µM (inactive) | GI50 [12]: 17.6 µM (inactive) | GI50 [13]: 8.07 µM (inactive) | GI50 [14]: 14.2 µM (inactive) | GI50 [15]: 17.3 µM (inactive) | GI50 [16]: 17.4 µM (inactive) | GI50 [17]: 15.6 µM (inactive) | GI50 [18]: 15.4 µM (inactive) | GI50 [19]: 18.7 µM (inactive) | GI50 [20]: 18.1 µM (inactive)
